From the supplement of paper PMC11208160 come the findings set out here.

This series can be described thus: recombinant barcode read abundance after kanamycin selection (control-corrected) (log10(CPM+1)); higher = more efficient recombination; sequences stand for … in AGTGCAGAGAAAATCGGCCAGTTTTCTCTGCCTGCAGTCCGCATGCCGT…AGATTTATGCAGCGGACTGCCTTTCTCCCAAAGTGATAAACCGGACAGTATCATGGACCGGTTTTCCCGGTAATCCGTATTTGCAAGGTTGGTTTCACT; site = the 11-nt target. In outline:
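Targets were screened in pooled form in E. coli against IS621 bridge RNA target-binding loops. Recombination efficiency is based on barcode counts at recombinant junctions in counts per million, averaged and corrected for the control. Numbers are shown as log10(CPM+1), with duplicate plates on chloramphenicol/ampicillin LB agar (control) or chloramphenicol/ampicillin/kanamycin with 0.1 mM IPTG.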
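Note: IS621 recombinase and bridge RNA in Escherichia coli cells.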

“CAGGCGTCTTGGGTTCTAACCTGTTGCAC (site CAGGCGTCTGT)”: the “recombinant barcode read abundance (log10)” value came out at 1.12.

In the case of “CAGGCGTCTTGGGTTCTAACCTGTTGCAC (site GAGGGGTCTGT)”, the “recombinant barcode read abundance (log10)” value was 0.142. As for “CAGGGCCCTTGGGTTCTAACCTGTTGCCT (site AAGGGCCCTAG)”, the figure is 0.329; as for “CAGGGCCCTTGGGTTCTAACCTGTTGCCT (site CAGGGCCCTAG)”, 2.14; as for “CAGGGCCCTTGGGTTCTAACCTGTTGCCT (site GAGGGCCCTAG)”, 0.527. As for “CAGGGCCCTTGGGTTCTAACCTGTTGCCT (site TAGGGCCCTAG)”, the “recombinant barcode read abundance (log10)” value turned out to be 0.397. As for “CAGGGGACTTGGGTTCTAACCTGTTGCCA (site CAGGGGACTTG)”, the figure is 1.04; as for “CAGGGGACTTGGGTTCTAACCTGTTGCCA (site CCGTGGACTTG)”, 0.217; as for “CAGGGGCCTTGGGTTCTAACCTGTTGCCT (site CAGAGGCCTAG)”, 0.0366. Take “CAGGGGCCTTGGGTTCTAACCTGTTGCCT (site CAGCGGCCTAG)”: the “recombinant barcode read abundance (log10)” value was 0.187. For “CAGGGGCCTTGGGTTCTAACCTGTTGCCT (site CAGGGGCCTAG)”, the “recombinant barcode read abundance (log10)” value amounted to 1.97. For “CAGGGGCCTTGGGTTCTAACCTGTTGCCT (site CAGTGGCCTAG)” the value was 0.185. As for “CAGGTACCTTGGGTTCTAACCTGTTGCAG (site CAGGTACCTAT)”, the figure is 0.368; as for “CAGGTACCTTGGGTTCTAACCTGTTGCAG (site CAGGTACCTCT)”, 3.12; as for “CAGGTGCCTTGGGTTCTAACCTGTTGCCT (site CAGGTGCCTAG)”, 2.25. In the case of “CAGGTGCCTTGGGTTCTAACCTGTTGCCT (site CCGGTGCCTAG)”, the “recombinant barcode read abundance (log10)” value amounted to 0.216. For “CAGGTGCCTTGGGTTCTAACCTGTTGCCT (site CGGGTGCCTAG)” the value was 0.122; for “CAGGTGCCTTGGGTTCTAACCTGTTGCCT (site CTGGTGCCTAG)”, 0.526; for “CAGTAGTCTTGGGTTCTAACCTGTTGCCT (site CAGTAATCTAG)”, 0.579. “CAGTAGTCTTGGGTTCTAACCTGTTGCCT (site CAGTACTCTAG)”: the “recombinant barcode read abundance (log10)” value was found to be 0.155.

On to “CAGTAGTCTTGGGTTCTAACCTGTTGCCT (site CAGTAGTCTAG)”, for which the “recombinant barcode read abundance (log10)” value is 1.07.

On to “CAGTAGTCTTGGGTTCTAACCTGTTGCCT (site CAGTATTCTAG)”, for which the “recombinant barcode read abundance (log10)” value was determined as 0.0913. As for “CAGTATTCTTGGGTTCTAACCTGTTGCCT (site CAGTAATCTAG)”, the figure is 0.0186. Take “CAGTATTCTTGGGTTCTAACCTGTTGCCT (site CAGTACTCTAG)”: the “recombinant barcode read abundance (log10)” value is 0.116. For “CAGTATTCTTGGGTTCTAACCTGTTGCCT (site CAGTAGTCTAG)” the value was 0.0496. Consider “CAGTATTCTTGGGTTCTAACCTGTTGCCT (site CAGTATTCTAG)”, for which the “recombinant barcode read abundance (log10)” value came out at 0.702. Turning to “CAGTCTACTTGGGTTCTAACCTGTTGCGT (site CAGTCTACTAC)”, the “recombinant barcode read abundance (log10)” value was 0.308. For “CAGTCTACTTGGGTTCTAACCTGTTGCGT (site TCAAGCCCTCT)” the value was 0.292. In the case of “CAGTCTGCTTGGGTTCTAACCTGTTGCCT (site CAATCTGCTAG)”, the “recombinant barcode read abundance (log10)” value came out at 0.141. In the case of “CAGTCTGCTTGGGTTCTAACCTGTTGCCT (site CACTCTGCTAG)”, the “recombinant barcode read abundance (log10)” value worked out at 0.0321. For “CAGTCTGCTTGGGTTCTAACCTGTTGCCT (site CAGTCTGCTAG)” the value was 0.512. Turning to “CAGTCTGCTTGGGTTCTAACCTGTTGCCT (site CATTCTGCTAG)”, the “recombinant barcode read abundance (log10)” value came to 0.182.

“CAGTTAGCTTGGGTTCTAACCTGTTGCCT (site CAGTTAGCTAG)”: the “recombinant barcode read abundance (log10)” value came to 0.642. In the case of “CAGTTAGCTTGGGTTCTAACCTGTTGCCT (site CAGTTCGCTAG)”, the “recombinant barcode read abundance (log10)” value stood at 0.182.

In the case of “CAGTTAGCTTGGGTTCTAACCTGTTGCCT (site CAGTTGGCTAG)”, the “recombinant barcode read abundance (log10)” value worked out at 0.0405.

Regarding “CAGTTAGCTTGGGTTCTAACCTGTTGCCT (site CAGTTTGCTAG)”, the “recombinant barcode read abundance (log10)” value amounted to 0.192. On to “CAGTTGGCTTGGGTTCTAACCTGTTGCCT (site CAGTTAGCTAG)”, for which the “recombinant barcode read abundance (log10)” value came out at 0.04. For “CAGTTGGCTTGGGTTCTAACCTGTTGCCT (site CAGTTCGCTAG)” the value was 0.0864; for “CAGTTGGCTTGGGTTCTAACCTGTTGCCT (site CAGTTGGCTAG)”, 1.01; for “CAGTTGGCTTGGGTTCTAACCTGTTGCCT (site CAGTTTGCTAG)”, 0.232. Regarding “CATAGACCTTGGGTTCTAACCTGTTGCAT (site CATAGACCTAT)”, the “recombinant barcode read abundance (log10)” value came out at 1.82. As for “CATAGACCTTGGGTTCTAACCTGTTGCAT (site CATAGCCCTAT)”, the “recombinant barcode read abundance (log10)” value was found to be 0.0625. As for “CATAGACCTTGGGTTCTAACCTGTTGCAT (site CATAGGCCTAT)”, the figure is 0.0233.

“CATAGACCTTGGGTTCTAACCTGTTGCAT (site CATAGTCCTAT)”: the “recombinant barcode read abundance (log10)” value was found to be 0.0411. As for “CATAGACCTTGGGTTCTAACCTGTTGCCT (site CATAGACCTAG)”, the figure is 1.45; as for “CATAGACCTTGGGTTCTAACCTGTTGCCT (site GATAGACCTAG)”, 0.00901.

Take “CATAGATCTTGGGTTCTAACCTGTTGCTT (site CAAAGATCTAA)”: the “recombinant barcode read abundance (log10)” value worked out at 0.271. For “CATAGATCTTGGGTTCTAACCTGTTGCTT (site CACAGATCTAA)”, the “recombinant barcode read abundance (log10)” value is 0.385. For “CATAGATCTTGGGTTCTAACCTGTTGCTT (site CAGAGATCTAA)” the value was 0.0253; for “CATAGATCTTGGGTTCTAACCTGTTGCTT (site CATAGATCTAA)”, 0.119; for “CATAGCCCTTGGGTTCTAACCTGTTGCAT (site CATAGACCTAT)”, 0.176.

“CATAGCCCTTGGGTTCTAACCTGTTGCAT (site CATAGCCCTAT)”: the “recombinant barcode read abundance (log10)” value worked out at 1.11. For “CATAGCCCTTGGGTTCTAACCTGTTGCAT (site CATAGGCCTAT)” the value was 0.117; for “CATAGCCCTTGGGTTCTAACCTGTTGCAT (site CATAGTCCTAT)”, 0.0192. “CATATCCCTTGGGTTCTAACCTGTTGCAT (site CATATCCCTAT)”: the “recombinant barcode read abundance (log10)” value stood at 1.33. As for “CATATCCCTTGGGTTCTAACCTGTTGCAT (site CTAATCCCTAT)”, the figure is 0.03; as for “CATATGACTTGGGTTCTAACCTGTTGCCT (site CATATGACTAG)”, 1.2.

In the case of “CATATGACTTGGGTTCTAACCTGTTGCCT (site TCAGGAGCTTA)”, the “recombinant barcode read abundance (log10)” value came to 0.126.

Turning to “CATCATTCTTGGGTTCTAACCTGTTGCCT (site CATAATTCTAG)”, the “recombinant barcode read abundance (log10)” value is 0.144.

“CATCATTCTTGGGTTCTAACCTGTTGCCT (site CATCATTCTAG)”: the “recombinant barcode read abundance (log10)” value stood at 0.215. For “CATCATTCTTGGGTTCTAACCTGTTGCCT (site CATGATTCTAG)” the value was 0.118; for “CATCATTCTTGGGTTCTAACCTGTTGCCT (site CATTATTCTAG)”, 0. For the sequence “CATCCGACTTGGGTTCTAACCTGTTGCCT (site CATCCGACTAG)”, the “recombinant barcode read abundance (log10)” value was found to be 0.92. On to “CATCCGACTTGGGTTCTAACCTGTTGCCT (site CATCCGCCTAG)”, for which the “recombinant barcode read abundance (log10)” value was 0.163. As for “CATCCGACTTGGGTTCTAACCTGTTGCCT (site CATCCGGCTAG)”, the figure is 0.33. For “CATCCGACTTGGGTTCTAACCTGTTGCCT (site CATCCGTCTAG)” the value was 0.0237; for “CATCCTCCTTGGGTTCTAACCTGTTGCTG (site CATCCTACTCC)”, 0.463; for “CATCCTCCTTGGGTTCTAACCTGTTGCTG (site CATCCTCCTCA)”, 0.666. For “CATCGGACTTGGGTTCTAACCTGTTGCAA (site CATCGGACTTT)” the value was 1.14; for “CATCGGACTTGGGTTCTAACCTGTTGCAA (site GGCTAACCTAG)”, 0.336. “CATGACACTTGGGTTCTAACCTGTTGCCT (site CATGACACTAG)”: the “recombinant barcode read abundance (log10)” value was 2.45. As for “CATGACACTTGGGTTCTAACCTGTTGCCT (site CATGCCGCTAG)”, the figure is 0.0486; as for “CATGCTACTTGGGTTCTAACCTGTTGCTC (site CATGCGACTCA)”, 0.191.

As to “CATGCTACTTGGGTTCTAACCTGTTGCTC (site CATGCTACTGA)”, the “recombinant barcode read abundance (log10)” value stood at 0.627. For “CATGTGCCTTGGGTTCTAACCTGTTGCCT (site CATGTGCCTAG)” the value was 1.89; for “CATGTGCCTTGGGTTCTAACCTGTTGCCT (site TATGCGCCTAG)”, 0.329; for “CATTATCCTTGGGTTCTAACCTGTTGCGT (site CATTATCCTAC)”, 1.59.
